In data set [1] the test system is human liver cancer (HA22T). Briefly: In vitro cytotoxicity against HA22T cells. The class given is cell-based. As to conditions: read-out: Cytotoxicity (IC50 in nM) HA22T. The method, then: (§1) The heterocyclic compounds, prepared in this study, were evaluated according to standard protocols for their in vitro cytotoxicity against six human cancer cell lines including cells derived from human gastric cancer (NUGC), human colon cancer (DLD1), human liver cancer (HA22T and HEPG2), nasopharyngeal carcinoma (HONE1), human breast cancer (MCF) and normal fibroblast cells (WI38). For comparison purposes, CHS 828, a pyridyl cyanoguanidine, was used as a standard antitumor drug (Figure 2). […] All the synthesized compounds were tested for their cytotoxicity against normal fibroblast cells.
(§2) Fetal bovine serum (FBS) and L-glutamine, were purchased from Gibco Invitrogen Co. (Scotland, UK). RPMI-1640 medium was purchased from Cambrex (East Rutherford, NJ, USA). Dimethyl sulfoxide (DMSO), CHS 828, penicillin, streptomycin and sulforhodamine B (SRB) were purchased from Sigma Chemical Co. (Saint Louis, MO, USA).
(§3) Cell cultures were obtained from the European Collection of Cell Cultures (ECACC, Salisbury, UK) and human gastric cancer (NUGC), human colon cancer (DLD1), human liver cancer (HA22T and HEPG2), human breast cancer (MCF), nasopharyngeal carcinoma (HONE1) and normal fibroblast cells (WI38) were kindly provided by the National Cancer Institute (NCI, Cairo, Egypt). They were grown as a monolayer and routinely maintained in RPMI-1640 medium supplemented with 5% heat inactivated FBS, 2 mM glutamine and antibiotics (penicillin 100 U/mL, streptomycin 100 µg/mL) at 37 °C in a humidified atmosphere containing 5% CO2. Exponentially growing cells were obtained by plating 1.5 × 10^5 cells/mL for the six human cancer cell lines followed by 24 h of incubation. The effect of the vehicle solvent (DMSO) on the growth of these cell lines was evaluated in all the experiments by exposing untreated control cells to the maximum concentration (0.5%) of DMSO used in each assay.

Data set [2] relates to human breast cancer (MCF). Briefly: In vitro cytotoxicity against MCF cells. It is filed as cell-based. As to conditions: read-out: Cytotoxicity (IC50 in nM) MCF. The method, then:
as §1, §2, §3

The test system of data set [3] is nasopharyngeal carcinoma (HONE1). Kind of data set: In vitro cytotoxicity against HONE1 cells. As to conditions: Homo sapiens. The class given is cell-based. The method, then:
as §1, §2, §3

Data set [4] has as its system human liver cancer (HEPG2). Kind of data set: In vitro cytotoxicity against HEPG2 cells. It is filed as cell-based. The method, then: as §1, §2, §3
Data set [5] concerns human gastric cancer (NUGC). Briefly: In vitro cytotoxicity against NUGC cells. As to conditions: read-out: Cytotoxicity (IC50 in nM) NUGC. The class given is cell-based. Here is the method: as §1, §2, §3
Data set [6] deals with human colon cancer (DLD1). Kind of data set: In vitro cytotoxicity against DLD1 cells. The class given is cell-based. Here is the method:
as §1, §2, §3

The mark [7] stands for this setting: liver cancer, concentration producing 50% reduction in cell growth.
Where [8] appears, read: MCF, breast cancer, concentration producing 50% reduction in cell growth.
[9] abbreviates: HONE1, nasopharyngeal carcinoma, concentration producing 50% reduction in cell growth, read-out: Cytotoxicity (IC50 in nM) HONE1.
Where [10] appears, read: HEPG2, liver cancer, concentration producing 50% reduction in cell growth, read-out: Cytotoxicity (IC50 in nM) HEPG2.
[11] abbreviates: gastric cancer, concentration producing 50% reduction in cell growth.
Setting [12] is: DLD-1, DLDI, colon cancer, concentration producing 50% reduction in cell growth, read-out: Cytotoxicity (IC50 in nM) DLDI.

Molecules are shown by their SMILES. Where two headings read alike, the source gives them in different places.

As usually defined, the IC50 is the concentration that inhibits the measured activity by half. Take `N#CN=C(NCCCCCCOc1ccc(Cl)cc1)Nc1ccncc1` [CHS 828, reference compound]: the IC50 in data set [1] came to 2070 nM; in data set [2] it was 18 nM; in data set [3] (HONE1, read-out: Cytotoxicity (IC50 in nM) HONE1) it was 15 nM; in data set [4] (HepG2, read-out: Cytotoxicity (IC50 in nM) HEPG2) it was 1240 nM; in data set [5] it was 25 nM; in data set [6] (DLD-1, read-out: Cytotoxicity (IC50 in nM) DLDI), 2320 nM.

By melting point is commonly meant the temperature of the solid-liquid transition. As for `N#CC1=C(N)OC(c2cc3ccccc3oc2=O)=C(Br)C1c1ccccc1` (stereo not shown) [Compound 6a, 2-Amino-5-bromo-6-(2-oxo-2H-chromen-3-yl)-4-phenyl-4H-pyran-3-carbonitrile], the melting point lay within 140 to 142 °C. In addition, the IC50 in data set [1] (setting [7]) was determined as 1240 nM. Also, the IC50 in data set [2] (setting [8]) was 2180 nM. In data set [3] (setting [9]), the IC50 was 1180 nM. Moreover, the IC50 in data set [4] (setting [10]) was determined as 59 nM. The IC50 in data set [5] (setting [11]) came out at 1090 nM. The 50% inhibitory concentration (IC50) in data set [6] (setting [12]) was 303 nM.

In turn, `N#CC1=C(N)NC(c2cc3ccccc3oc2=O)=C(Br)C1c1ccc(Cl)cc1` (stereo not shown) [Compound 7c, 2-Amino-5-bromo-4-(4-chlorophenyl)-6-(2-oxo-2H-chromen-3-yl)-1,4-dihydropyridine-3-carbonitrile] registered a melting point of 206 to 208 °C. In addition, in data set [1] (setting [7]), the IC50 was determined as 128 nM. Besides, in data set [2] (setting [8]), the IC50 came out at 43 nM. Also, the IC50 in data set [3] (setting [9]) is 221 nM. Moreover, the IC50 in data set [4] (setting [10]) was determined as 416 nM. Also, in data set [5] (setting [11]), the IC50 was 98 nM. In addition, the IC50 in data set [6] (setting [12]) is 32 nM.

With `N#CC1=C(N)NC(c2cc3ccccc3oc2=O)=C(Br)C1c1ccco1` (stereo not shown) [Compound 7d, 2-Amino-5-bromo-4-(furan-2-yl)-6-(2-oxo-2H-chromen-3-yl)-1,4-dihydropyridine-3-carbonitrile], the melting point lay in the range of 205 to 207 °C. For the same compound, the half-inhibitory concentration (IC50) in data set [1] (setting [7]) was determined as 52 nM. Further, in data set [2] (setting [8]), the 50% inhibitory concentration (IC50) came out at 1130 nM. For the same compound, in data set [3] (setting [9]), the IC50 came to 1190 nM. For the same compound, the IC50 in data set [4] (setting [10]) was found to be 2730 nM. For the same compound, in data set [5] (setting [11]), the IC50 turned out to be 682 nM. Moreover, the IC50 in data set [6] (setting [12]) worked out at 163 nM.

As for `Nc1cc(-c2cc3ccccc3oc2=O)n[nH]1` [Compound 9a, 3-(5-Amino-1H-pyrazol-3-yl)-2H-chromen-2-one], the melting point lay within 218 to 220 °C. In data set [1] (setting [7]), the IC50 is 2170 nM. Besides, in data set [2] (setting [8]), the IC50 was found to be 1290 nM. In data set [3] (setting [9]), the IC50 was 442 nM. The IC50 in data set [4] (setting [10]) is 359 nM. Also, in data set [5] (setting [11]), the IC50 was 3470 nM. In addition, the IC50 in data set [6] (setting [12]) stood at 48 nM.

In the case of `N#CC1=C(N)NC(c2cc3ccccc3oc2=O)=C(C#N)C1c1ccc(Cl)cc1` (stereo not shown) [Compound 11c, 2-Amino-4-(4-chlorophenyl)-6-(2-oxo-2H-chromen-3-yl)-1,4-dihydropyridine-3,5-dicarbonitrile], the melting point lay in the range of 197 to 199 °C. In addition, the IC50 in data set [1] (setting [7]) came to 2060 nM. The IC50 in data set [2] (setting [8]) turned out to be 839 nM. The IC50 in data set [3] (setting [9]) was 1770 nM. In addition, the IC50 in data set [4] (setting [10]) stood at 424 nM. In addition, the 50% inhibitory concentration (IC50) in data set [5] (setting [11]) was determined as 1280 nM. The IC50 in data set [6] (setting [12]) was 483 nM.

`COc1ccc(C2C(C#N)=C(N)NC(c3cc4ccccc4oc3=O)=C2C#N)cc1` (stereo not shown) [Compound 11b, 2-Amino-4-(4-methoxyphenyl)-6-(2-oxo-2H-chromen-3-yl)-1,4-dihydropyridine-3,5-dicarbonitrile] registered a melting point of 99 to 101 °C. Moreover, the IC50 in data set [1] (setting [7]) came out at 3060 nM. In data set [2] (setting [8]), the IC50 was 39 nM. Further, the IC50 in data set [3] (setting [9]) is 1670 nM. Also, in data set [4] (setting [10]), the IC50 came to 215 nM. Moreover, the half-inhibitory concentration (IC50) in data set [5] (setting [11]) was 124 nM. Further, the IC50 in data set [6] (setting [12]) turned out to be 58 nM.

`N#CC1=C(N)OC(c2cc3ccccc3oc2=O)=C(C#N)C1c1ccc(Cl)cc1` (stereo not shown) [Compound 10c, 2-Amino-4-(4-chlorophenyl)-6-(2-oxo-2H-chromen-3-yl)-4H-pyran-3,5-dicarbonitrile]: the melting point fell in the range of 178 to 180 °C. In addition, the IC50 in data set [1] (setting [7]) is 4170 nM. Also, the half-inhibitory concentration (IC50) in data set [2] (setting [8]) turned out to be 584 nM. The IC50 in data set [3] (setting [9]) was determined as 89 nM. Further, the 50% inhibitory concentration (IC50) in data set [4] (setting [10]) worked out at 399 nM. Also, the IC50 in data set [5] (setting [11]) was 312 nM. Further, the IC50 in data set [6] (setting [12]) worked out at 193 nM.
